This note sets out measurements from patent US8163774B2, “Amide-substituted 8-N-benzimidazoles, method for the production thereof, and use of the same as medicaments” (Sanofi-Aventis, priority 2005, dated 2012).

What is called IC50 is the concentration needed to halve the response being measured. High values mean weaker potency in that assay, low ones greater potency in that assay.

The target in the experiment is T1, DPP-IV from porcine kidneys (Sus scrofa, UniProt P22411).
T1 construct: DPP-IV from porcine kidneys (Sigma, Munich); purchased Sigma, Munich; host or cells: porcine kidney tissue
Put plainly: Measurement of the DPP-IV activity (fluorimetric, H-Ala-Pro-AFC substrate). The class given is biochemical. To be noted: DPP-IV 1 mU/ml, substrate H-Ala-Pro-AFC 15 μM, Tris/HCl pH 7.4, room temperature. On the procedure: Measurement of the DPP-IV activity:
DPP-IV from porcine kidneys (Sigma, Munich)
H-Ala-Pro-AFC (Bachem, Weil am Rhein)
DPP-IV (1 mU/ml, end concentration)
H-Ala-Pro-AFC (15 μm end concentration)
in Tris/HCl (40 mM, pH 7.4), total volume 0.2 ml
The reaction was performed at room temperature for different periods (typically 10 minutes) and stopped at the end of the reaction by adding 20 μl of ZnCl2 (1 M). The conversion of H-AIa-Pro-AFC was determined fluorimetrically by measuring the emission at 535 nm on excitation at 405 nm. In the case of addition of inhibitors, the buffer volume added was adjusted such that a total volume of the test mixture of 200 μl was maintained.
IC50 values for inhibitors were determined by varying the inhibitor concentrations at the given substrate concentration of 15 μM. Ki and Km values were determined by corresponding variation of substrate and inhibitor concentration as described (Dixon, M. and Webb, E. C. (1979) Enzymes, third edition, pp. 47-206, Academic Press). The values for Km, IC50 and Ki were calculated using a commercially available software package (Leatherbarrow, R. J. (1992) GraFit Version 3.0, Erithacus Software Ltd. Staines, U.K.).

T1 sequence (P22411 whole entry): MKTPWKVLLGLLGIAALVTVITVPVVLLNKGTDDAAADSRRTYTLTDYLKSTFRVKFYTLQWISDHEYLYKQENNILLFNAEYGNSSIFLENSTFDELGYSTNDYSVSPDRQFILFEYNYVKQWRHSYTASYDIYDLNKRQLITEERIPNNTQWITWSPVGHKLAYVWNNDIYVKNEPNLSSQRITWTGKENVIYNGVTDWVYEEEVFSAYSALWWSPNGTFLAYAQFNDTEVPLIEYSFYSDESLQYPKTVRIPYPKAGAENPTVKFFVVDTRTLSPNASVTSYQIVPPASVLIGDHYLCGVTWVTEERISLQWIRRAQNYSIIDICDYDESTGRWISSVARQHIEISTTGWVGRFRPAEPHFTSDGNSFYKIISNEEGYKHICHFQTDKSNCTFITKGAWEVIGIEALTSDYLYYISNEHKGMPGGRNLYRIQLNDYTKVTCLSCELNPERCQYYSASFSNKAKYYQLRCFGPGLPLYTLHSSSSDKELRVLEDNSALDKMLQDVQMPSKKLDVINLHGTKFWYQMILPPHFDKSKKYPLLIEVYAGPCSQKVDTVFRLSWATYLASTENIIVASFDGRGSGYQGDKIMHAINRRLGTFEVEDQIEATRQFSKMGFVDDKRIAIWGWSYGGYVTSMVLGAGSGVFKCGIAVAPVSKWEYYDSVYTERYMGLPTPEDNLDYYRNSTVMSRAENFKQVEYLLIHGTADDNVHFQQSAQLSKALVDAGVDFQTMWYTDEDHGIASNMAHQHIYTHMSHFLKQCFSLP

`N[C@@H]1CCCN(c2nc3ccc(C(=O)NCc4cccc(C(F)(F)F)c4)cc3n2Cc2ccc(F)cc2)C1` [Example 2] had an IC50 of 1 µM. Next, `N[C@@H]1CCCN(c2nc3ccc(C(=O)NCc4cccnc4)cc3n2Cc2ccc(F)cc2)C1` [Example 5]: 2.5 µM; `N[C@@H]1CCCN(c2nc3cc(C(=O)NCc4ccc(Cl)cc4)ccc3n2Cc2ccc(F)cc2)C1` [Example 6]: 4.3 µM; `CC(C)=CCn1c(N2CCC[C@@H](N)C2)nc2ccc(C(=O)Nc3ccc(F)cc3)cc21` [Example 11]: 1.8 µM.
